Results taken from patent US20040122209A1, “Products for regulating the degradation of collagen and methods for identifying same” (Shriners Hospital For Children, priority 2002, published 2004).

Experiments:
Assay type in all cases: cell-based
[1] = test system: adult bovine articular chondrocytes; assay: Collagenase-cleaved type II collagen (COL2-3/4C ELISA) in bovine chondrocyte pellet culture; details: preliminary studies; denatured 50° C. for 20 min; data not shown
Description: Adult bovine and human articular cartilage was obtained from metacarpophalangeal joints shortly (within 3 hours) after slaughter and from autopsy within 18 hr of death, respectively. Chondroctyes were released from freshly dissected articular cartilage specimens by sequential enzymatic digestion at 37° C. with trypsin and bacterial collagenase as previously described (Aimes, R. T., 1995). […]
The cell pellets and cartilage explant cultured for various times were digested for the extraction of collagenase-generated neoepitope COL2-3/4Cshort (Billinghurst, R. C. et al., (1997) supra) and denatured type II collagen epitope COL2-3/4m and total type II collagen (Hollander, A. P. et al. (1994a) supra), as previously described: Briefly, the harvested pellets were incubated overnight with 1.0 mg/ml α-chymotrypsin at 37° C. to cleave and solubilize denatured collagen leaving the above neoepitope and epitope intact. […] The COL2-3/4Cshort epitope (hereafter referred to as COL2-3/4Cshort) generated by cleavage of type II collagen by collagenase (Billinghurst, R. C. et al. (1997) supra) and intrachain epitope (COL2-3/4m) exposed in denatured type II collagen (Hollander, A. P. et al. (1994a) supra) were measured in α-chymotrypsin extracts by immunoassay. […] The release of the COL2-3/4C epitope into media was also measured by immunoassay. […]

[2] = test system: bovine articular cartilage explant; assay: Collagenase-cleaved type II collagen (COL2-3/4C) in bovine articular cartilage explant culture; details: 0.1 and 1 μM from day 0; day 12; one way ANOVA
Description: The cartilages were prepared as previously described (Dahlberg, L. et al. (2000) supra. In brief, the cartilage samples were washed three times with basal culture medium containing Dulbecco's modified Eagle's medium (DMEM; Gibco BRL, Life Technologies, Grand Island, N.Y.) with 20 mM HEAPS buffer (pH 7.4) (Gibco BRL), 45 mM NaHCO3, 100 units/ml penicillin, 100 μg/ml streptomycin and 150 μg/ml gentamycin sulphate (Medium A). Full-depth cartilage slices from a single area, around 20 mm×20 mm were cut vertical to the articular surface and then into cubes of approximately 2 mm×2 mm (5-7 cubes were randomly obtained and wet weights about 50-70 mg/well determined).
The cartilage was assigned to 48 well plate (ca 40 mg/well) and kept in Medium A supplemented with 50 μg/ml ascorbic acid, 0.1 mg/bovine serum albumin, 50 μg/ml insulin, 5.0 μg/ml and 5.0 μg/ml sodium DMEM alone at 37° C. in 95% air/5% CO2. The cartilage was precultured for 2 days and medium was changed at day 0. Thereafter medium (as described in pellet cultures) was replaced every four days. Various CNBr fragments and/or synthetic peptides were freshly added from day 0 at each medium change. Thereafter, cartilage explants and conditioned media were harvested and stored at −20° C.
The cell pellets and cartilage explant cultured for various times were digested for the extraction of collagenase-generated neoepitope COL2-3/4Cshort (Billinghurst, R. C. et al., (1997) supra) and denatured type II collagen epitope COL2-3/4m and total type II collagen (Hollander, A. P. et al. (1994a) supra), as previously described: Briefly, the harvested pellets were incubated overnight with 1.0 mg/ml α-chymotrypsin at 37° C. to cleave and solubilize denatured collagen leaving the above neoepitope and epitope intact. After inhibition of α-chymotrypsin activity with N-tosyl-L-phenelalanine-chloromethyl ketone (Sigma), the samples were centrifuged and the supernatants were removed and boiled for 10 min. The COL2-3/4Cshort epitope (hereafter referred to as COL2-3/4Cshort) generated by cleavage of type II collagen by collagenase (Billinghurst, R. C. et al. (1997) supra) and intrachain epitope (COL2-3/4m) exposed in denatured type II collagen (Hollander, A. P. et al. (1994a) supra) were measured in α-chymotrypsin extracts by immunoassay. The COL2-3/4Cshort epitope is detected in an ELISA assay using a rabbit antibody to the carboxyterminal cleavage neoepitope on the TCA piece generated by primary collagenase cleavage of type II collagen. The release of the COL2-3/4C epitope into media was also measured by immunoassay. Total contents in tissue/cells and media was recorded for COL2-3/^4Cshort epitope. The COL2-3/4m epitope was recorded in cells and tissue where it was concentrated. The remaining residues of pellets and explants were digested overnight with 1.0 mg/ml proteinase K at 56° C. to extract the remaining intact type II collagen and then boiled for 10 min to denature the enzyme. Total type II collagen content in the pellets and explant was determined from the collective amount of COL2-3/4m in both the α-chymotrypsin and proteinase K digests.

[3] = test system: bovine articular cartilage explant; assay: Proteoglycan (GAG) content and release in bovine explant culture; details: 0.1 and 1 μM from day 0
Description: The cartilages were prepared as previously described (Dahlberg, L. et al. (2000) supra. In brief, the cartilage samples were washed three times with basal culture medium containing Dulbecco's modified Eagle's medium (DMEM; Gibco BRL, Life Technologies, Grand Island, N.Y.) with 20 mM HEAPS buffer (pH 7.4) (Gibco BRL), 45 mM NaHCO3, 100 units/ml penicillin, 100 μg/ml streptomycin and 150 μg/ml gentamycin sulphate (Medium A). Full-depth cartilage slices from a single area, around 20 mm×20 mm were cut vertical to the articular surface and then into cubes of approximately 2 mm×2 mm (5-7 cubes were randomly obtained and wet weights about 50-70 mg/well determined). The cartilage was assigned to 48 well plate (ca 40 mg/well) and kept in Medium A supplemented with 50 μg/ml ascorbic acid, 0.1 mg/bovine serum albumin, 50 μg/ml insulin, 5.0 μg/ml and 5.0 μg/ml sodium DMEM alone at 37° C. in 95% air/5% CO2. The cartilage was precultured for 2 days and medium was changed at day 0. Thereafter medium (as described in pellet cultures) was replaced every four days. Various CNBr fragments and/or synthetic peptides were freshly added from day 0 at each medium change. Thereafter, cartilage explants and conditioned media were harvested and stored at −20° C. In order to show the specificity of the peptide fragments of one embodiment on degradation of type II collagen as compared with proteoglycan, primarily aggrecan, sulphated glycosaminoglycan (GAG) content was determined in both the α-chymotrypsin and proteinase K digests for total proteoglycan (predominantly aggrecan) content in cell pellets, cartilage explants and also in conditioned media. Measurement of release of proteoglycan into media was tested using dimethylene blue dye binding as previously described (Dahlberg, L. et al. (2000) supra).

denatured type II collagen: denatured type II collagen purified from fetal bovine epiphyseal cartilage
difference between pellet cultures treated with and without denatured type II collagen [1]: no significant difference | COL2-3/4C content in medium and cartilage [2]: no effect | GAG-release into culture media [3]: no effect | proteoglycan (GAG) contents [3]: no effect
